In patent US5084563A, “Crystalline 2-O-α-D-glucopyranosyl-L-ascorbic acid, and its preparation and uses” (priority 1989, dated 1992):

Assays:
physchem = type: physicochemical; settings: for remaining at 1 h, 70 µM / remaining at 2 h, 70 µM / remaining at 4 h, 70 µM / remaining at 18 h, 70 µM / remaining at 24 h, 70 µM: aqueous solution; for Remaining ratio: 0 min, 70 uM
Description: 2-O-α-D-Glucosyl-L-ascorbic acid was compared respectively to the 6-O-α-D-glucosyl-L-ascorbic acid disclosed in Japanese Patent Publication No. 38,158/73, and L-ascorbic acid for their stability in aqueous solution. More particularly, each sample was adjusted to a concentration of 70 micromoles and to pH 7.0 or 2.0, placed in a cuvette, and measured for its absorbance at either 260 nm and pH 7.0 or at 245 nm and pH 2.0 while keeping the solution at 45° C. The remaining ratio (%) was calculated with the absorbance.

Dissociation constant = type: physicochemical
Text: (10) Dissociation constant The pKa is 3.0.

dd mice = test: Acute toxicity, oral; type: in vivo
Text: A crystalline 2-O-α-D-glucopyranosyl-L-ascorbic acid specimen, prepared by the method in Experiment 1, was orally administered to 7 week-old dd mice for acute toxicity test. As the result, no mouse died when administered with up to […] of the specimen, and higher dose was difficult.

Solubility in water = type: physicochemical; settings: 25° C.
Solubility in solvents = type: physicochemical
[1] = Physical properties: hygroscopicity, deliquescence, loss on drying; type: physicochemical; settings: for Hygroscopicity and deliquescence: ambient conditions
Description: (12) Physical properties and color: Colorless and transparent crystal. […] Loss on drying at 130° C. for 2 hours is less than 0.5 w/w %. FIG. 5 is the microscopic view of a crystal growing in a supersaturated solution.

[2] = Coloring reaction: direct reducing activity; type: biochemical; settings: 2,6-dichlorophenolindophenol
α-glucosidase = test: Hydrolysis by α-glucosidase; type: biochemical; settings: products at molar ratio 1:1
Description: (§1) (14) Structual element: Hydrolyzable by α-glucosidase or by treatment with 1N hydrochloric acid at 100° C. for 5 minutes to form L-ascorbic acid and D-glucose at a molar ratio of 1:1.

[3] = Hydrolysis with 1N hydrochloric acid; type: physicochemical; settings: 100° C., 5 minutes, products at molar ratio 1:1
Description: as §1

Compound | remaining at 1 h, 70 µM (physchem; pH 2) [%] | remaining at 2 h, 70 µM (physchem; pH 2) [%] | remaining at 4 h, 70 µM (physchem; pH 2) [%] | remaining at 18 h, 70 µM (physchem; pH 2) [%] | remaining at 24 h, 70 µM (physchem; pH 2) [%] | remaining at 1 h, 70 µM (physchem; pH 7) [%] | remaining at 2 h, 70 µM (physchem; pH 7) [%] | remaining at 4 h, 70 µM (physchem; pH 7) [%] | remaining at 18 h, 70 µM (physchem; pH 7) [%] | remaining at 24 h, 70 µM (physchem; pH 7) [%] | Remaining ratio (physchem; pH 2) [%] | Remaining ratio (physchem; pH 7) [%] | Hygroscopicity and deliquescence [1] | other results
O=C1O[C@H]([C@@H](O)CO)C(O)=C1O[C@H]1O[C@H](CO)[C@@H](O)[C@H](O)[C@H]1O [2-O-α-D-glucopyranosyl-L-ascorbic acid] | 100 | 100 | 100 | 100 | 100 | 100 | 100 | 100 | 100 | 100 | – | – | – | pKa (Dissociation constant): 3
O=C1O[C@H]([C@@H](O)CO[C@H]2O[C@H](CO)[C@@H](O)[C@H](O)[C@H]2O)C(O)=C1O [6GAsA, 6-O-α-D-glucosyl-L-ascorbic acid] | 99 | 98 | 90 | 25 | 12 | 88 | 72 | 43 | 7 | 4 | 100 | 100 | – | –
O=C1O[C@H]([C@@H](O)CO)C(O)=C1O [AsA, L-ascorbic acid] | 98 | 95 | 88 | 12 | 4 | 80 | 61 | 32 | 1 | 1 | 100 | 100 | – | –
O=C1O[C@H]([C@@H](O)CO)C(O)=C1O[C@H]1O[C@H](CO)[C@@H](O)[C@H](O)[C@H]1O [crystalline 2-O-α-D-glucopyranosyl-L-ascorbic acid] | – | – | – | – | – | – | – | – | – | – | 100 | 100 | Free of hygroscopicity and deliquescence | Dose up to which no mouse died (dd mice; 7 week-old dd mice, higher dose was difficult): up to 5 g; Mortality (dd mice; 7 week-old dd mice, up to 5 g of the specimen): no mouse died; Toxicity (dd mice; dd mice, overall conclusion): extremely low in toxicity; Solubility (Solubility in water): One hundred and twenty-five; Solubility in solvents (Solubility in solvents; 0.1N acetic acid): Readily soluble; Solubility in solvents (Solubility in solvents; 0.1N sodium hydroxide): Readily soluble; Solubility in solvents (Solubility in solvents; benzene): insoluble; Solubility in solvents (Solubility in solvents; chloroform): insoluble; Solubility in solvents (Solubility in solvents; ethanol): soluble; Solubility in solvents (Solubility in solvents; ether): insoluble; Solubility in solvents (Solubility in solvents; ethyl acetate): insoluble; Solubility in solvents (Solubility in solvents; methanol): soluble; Solubility in solvents (Solubility in solvents; water): Readily soluble; Loss on drying ([1]; 130° C., 2 hours): less than 0.5 w/w %; Direct reducing activity [2]: no direct reducing activity; Hydrolysis to L-ascorbic acid and D-glucose (α-glucosidase): Hydrolyzable; Hydrolysis to L-ascorbic acid and D-glucose [3]: Hydrolyzable
O=C1O[C@H]([C@@H](O)CO)C(O)=C1O[C@H]1O[C@H](CO)[C@@H](O)[C@H](O)[C@H]1O [amorphous 2-O-α-D-glucopyranosyl-L-ascorbic acid] [reference compound] | – | – | – | – | – | – | – | – | – | – | – | – | strongly hygroscopic | –
